Test results published in patent publication US20250326988A1, “SELF-PRESERVED, MILD LIQUID LAUNDRY DETERGENT FORMULAS” (Henkel AG & Co. KGaA, priority 2024, published 2025).

Test system: Fungi
Assay: Micro challenge, fungi reduction
Assay type: cell-based
Settings: for Estimated Regression Coefficients for 7 Day: Coefficient / Estimated Regression Coefficients for 14 Day: Coefficient / Estimated Regression Coefficients for 21 Day: Coefficient / Estimated Regression Coefficients for 28 Day: Coefficient: Minitab regression of fungi log reductions; for efficacy of ingredient for log reduction as indicated by estimated regression coefficients: ethanol at day 7, sodium chloride afterwards
Protocol: Micro challenges were performed on Formulations 61J-L, 62A-M, […] and […] prepared in Example 1 for log reduction rates of bacteria and fungi. Bacteria were double challenged (inoculated about 1E08 to 1E09 CFU/g) and Fungi was single challenged (inoculated about 1E8 to 5E8). A. brasillienis (mold), S. aureus, E. coli, P. gergoviae/[…] mixture, P. aeruginosa, C. albicans (yeast), H. venusta were tested. Pass criteria for bacterium was greater than 3 log reduction on day 7 and 4 logs on day 28. Pass criteria for fungi was greater than 1 log reduction at 14 days with no growth observed afterwards.

Compound | Estimated Regression Coefficients for 7 Day: Coefficient | Estimated Regression Coefficients for 14 Day: Coefficient | Estimated Regression Coefficients for 21 Day: Coefficient | Estimated Regression Coefficients for 28 Day: Coefficient | efficacy of ingredient for log reduction as indicated by estimated regression coefficients
CCO [Ethanol] | 2.24 | 3.08 | 3.22 | 3.09 | most effective log reduction
CC(C(=O)O)N(CC(=O)O)CC(=O)O (centres unmarked) [MGDA, methylglycinediacetic acid] | 1.16 | 1.42 | 1.43 | 1.42 | –
[Cl-].[Na+] [NaCl, sodium chloride] | 1.36 | 2.14 | 3.13 | 3.42 | comparable to ethanol's efficacy
